Laboratory results published in patent US6616925B1, “Combined preparation for the treatment of neoplasic diseases or of infectious diseases” (I.D.M. Immuno-Designed Molecules, priority 1998, dated 2003).

Legend:
[1] = tested on: human carcinoma solid tumors; test: nude mice inoculated with human carcinoma solid tumors, subcutaneous tumor size; format: in vivo; details: after macrophage treatment; drugs used alone or in combination
Excerpt: 2) Nude mice inoculated with human carcinoma solid tumors are, initially treated with cytotoxic drugs (Adriamycin, Etretinate, Taxotere), used alone or in combination.

solid carcinoma = test: C57B16 mice bearing solid carcinoma, apoptosis-inducing drug then monocyte derived cells; format: in vivo; details: drug intraperitonealy, after 24 h 0.1 million monocyte derived cells in tumor periphery; observed only after combined treatment
Experimental: 7) C57B16 mice bearing solid carcinoma are injected intraperitonealy with a drug inducing apoptosis (1 mg mitomycin C or 0.1 mg sodium butyrate). After 24 h, mice are injected with 0.1 million monocyte derived cells in tumor periphery. […] In another protocol, carcinoma cells are treated in vitro with 0.01 mM sodium butyrate, and then submitted to phagocytosis by murine monocyte derived cells.

| Structure (SMILES) | antitumoral effect of second treatment with the same cytotoxic drugs (subcutaneous tumor size) [1] | tumor outcome after combined treatment (solid carcinoma) |
| --- | --- | --- |
| COc1cccc2c1C(=O)c1c(O)c3c(c(O)c1C2=O)C[C@@](O)(C(=O)CO)C[C@@H]3O[C@H]1C[C@H](N)[C@H](O)[C@H](C)O1 [Adriamycin] | further antitumoral effect | – |
| CCOC(=O)/C=C(C)/C=C/C=C(C)/C=C/c1c(C)cc(OC)c(C)c1C [Etretinate] | further antitumoral effect | – |
| CC(=O)O[C@@]12CO[C@@H]1C[C@H](O)[C@@]1(C)C(=O)[C@H](O)C3=C(C)[C@@H](OC(=O)[C@H](O)[C@@H](NC(=O)OC(C)(C)C)c4ccccc4)C[C@@](O)([C@@H](OC(=O)c4ccccc4)[C@H]21)C3(C)C [Taxotere] | further antitumoral effect | – |
| CO[C@@]12[C@H](COC(N)=O)C3=C(C(=O)C(C)=C(N)C3=O)N1C[C@@H]1N[C@@H]12 [mitomycin C] | – | Tumor regression and protection against further tumor challenge |
| CCCC(=O)[O-].[Na+] [sodium butyrate] | – | Tumor regression and protection against further tumor challenge |
